The source of these data is PubChem BioAssay (NCI).

Common to all, as to assay: growth of human tumour cells (NCI), 48 h
The subject of experiment [1] is 786-0 renal.
Experiment [2] relates to ACHN renal.
Experiment [3] deals with HCC-2998 colon.
The subject of experiment [4] is IGROV1 ovarian.
The test system of experiment [5] is K-562 leukemia.
For experiment [6], the system named is MCF7 breast.
Experiment [7] relates to MDA-MB-231 breast.
In experiment [8] the test system is OVCAR-4 ovarian.
Experiment [9] concerns OVCAR-5 ovarian.
Experiment [10] concerns OVCAR-8 ovarian.
The subject of experiment [11] is RXF 393 renal.
Experiment [12] relates to SF-295 CNS.
For experiment [13], the system named is SK-MEL-28 melanoma.
The test system of experiment [14] is SNB-19 CNS.
The test system of experiment [15] is SW-620 colon.
Experiment [16] relates to T-47D breast.
In experiment [17] the test system is U251 CNS.
For experiment [18], the system named is UACC-62 melanoma.
The subject of experiment [19] is HOP-92 NSCLC.

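Dose response: 5 concentrations. Exposure: 48 h. Format: 96-well plates. Endpoint: linear interpolation; highest concentration if not reached. TGI is the concentration that stops growth completely.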

As to `Cc1csc2nc3c(cnn3C)c(=S)n12`, the TGI in experiment [1], in experiment [2], in experiment [3], in experiment [4], in experiment [5] and in experiment [6] was above 100 µM throughout. Besides, the TGI was above 10 µM in [7]; above 100 µM in experiment [8]; above 100 µM in [9]; above 100 µM in [10]; above 100 µM in experiment [11]; above 100 µM in experiment [12]. For the same compound, the TGI was above 100 µM in experiment [13]; above 100 µM in experiment [14]; above 100 µM in experiment [15]; above 10 µM in experiment [16]; above 100 µM in [17]; above 100 µM in experiment [18].

With `COc1nc(C)nc2sc3c(c12)CCCC3`, the TGI in experiment [1], in experiment [2], in experiment [3], in experiment [4], in [5] and in experiment [6] was above 100 µM in each case. Moreover, the TGI in experiment [7], in experiment [8], in experiment [9], in experiment [10], in experiment [11] and in [12] was above 100 µM each time. Further, the TGI in [13], in experiment [14], in experiment [15], in [16], in experiment [17] and in [18] was above 100 µM in each case.

On to `CCC(Sc1cc(Cl)c(C)cc1S(=O)(=O)Nc1nc(N)nc(N(C)C)n1)C(=O)O` (centres undefined), for which the TGI in [1], in experiment [2], in experiment [3], in experiment [19], in experiment [4] and in experiment [5] was above 10 µM each time. The TGI in [6], in experiment [8], in experiment [9], in experiment [10], in [11] and in experiment [12] was above 10 µM each time. Besides, the TGI in [13], in experiment [14], in experiment [15], in experiment [16] and in experiment [17] was above 10 µM in each case.

With `Cc1cc(C)nc(NS(=O)(=O)c2ccc(Nc3c4ccccc4nc4c(C(=O)NNCCO)cccc34)cc2)n1`, the TGI in experiment [1], in [2], in experiment [3], in experiment [19], in experiment [4] and in experiment [5] was above 100 µM in each case. Moreover, the TGI in experiment [6], in experiment [7], in experiment [8], in [9], in experiment [10] and in experiment [12] was above 100 µM in each case. In addition, the TGI in experiment [13], in experiment [14], in experiment [15], in experiment [16], in experiment [17] and in experiment [18] was above 100 µM throughout.

For `CO[C@H]1c2cccc3cccc(c23)[C@@H]1n1[nH]c(=O)n(C(C)(C)C)c1=O`, the TGI in [1], in experiment [3], in experiment [4], in experiment [5], in [6] and in experiment [7] was above 100 µM throughout. Moreover, the TGI in experiment [8], in [9], in experiment [10], in experiment [11], in experiment [13] and in experiment [14] was above 100 µM throughout. Also, the TGI in experiment [15], in experiment [16], in experiment [17] and in [18] was above 100 µM in each case.

As for `CC12CCC3[C@@H](CC3(C)C)C(O)(CCC1=O)C2` (some centres undefined), the TGI in experiment [1], in [2], in experiment [3], in experiment [19], in experiment [4] and in experiment [5] was above 100 µM in each case. The TGI in experiment [6], in experiment [7], in [8], in experiment [9], in [10] and in [12] was above 100 µM in each case. The TGI in experiment [13], in experiment [15], in [16], in experiment [17] and in experiment [18] was above 100 µM throughout.

With `Cc1oc2c(c1C)S(=O)(=O)C(C#N)=C(c1ccccc1)N2`, the TGI in experiment [1], in experiment [2], in experiment [3], in [19], in experiment [4] and in experiment [5] was above 100 µM throughout. Further, the TGI in experiment [6], in experiment [7], in [8], in experiment [9], in experiment [10] and in experiment [12] was above 100 µM each time. Moreover, the TGI in [13], in [14], in experiment [15], in experiment [16], in experiment [17] and in experiment [18] was above 100 µM in each case.

For the compound `CCOC(=O)NNC(=O)C1CSC(c2ccccc2)N1C(C)=O` (centres undefined), the TGI in [1], in [2], in experiment [3], in experiment [19], in experiment [4] and in experiment [5] was above 100 µM in each case. Further, the TGI in [6], in experiment [7], in experiment [8], in experiment [9], in experiment [10] and in experiment [12] was above 100 µM in each case. Further, the TGI in [14], in experiment [15], in experiment [16], in experiment [17] and in experiment [18] was above 100 µM in each case.
